The values that follow come from paper PMC11357446, “Searching for Novel HDAC6/Hsp90 Dual Inhibitors with Anti-Prostate Cancer Activity: In Silico Screening and In Vitro Evaluation” (Pharmaceuticals, 2024).

The structures appear in SMILES notation.

Common to all, as to format: cell-based, human
For series [1], the system named is acetylated tubulin (Ac-Tub) in PC-3 cells. Nature of the series: Western blot of acetylated α-Tubulin in PC-3 cells. Conditions: 24 h at GI50 concentration, normalized with Tubulin. Here is the method: (§1) To assess whether the observed antiproliferative activity of the selected compounds was a consequence of HDAC6-targeting, we examined the effect of the cell treatments on the expression levels of acetylated tubulin (Ac-Tub), a well-known HDAC6 target. LNCaP and PC-3 cells were treated with the tested compounds at their GI50 concentrations, and SDS-PAGE and western blot were performed. In addition, the acetylation levels of histone H3, which are mainly regulated by HDAC1, were also evaluated in order to exclude potential class I-HDAC off-target activities. We used Tubastatin-A and Geldanamycin as reference controls for cellular effects resulting from HDAC6- and Hsp90-inhibition, respectively. The results in Figure 2 show a significant increase in α-Tubulin acetylation in LNCaP cells after treatments with compounds 8, 11 and 18. Indeed, these compounds triggered a 2.9-, 5.1-, and 2.5-fold increase, respectively, compared to the control (DMSO). […].
Figure 2 Western blot analysis and relative quantification of the expression levels of acetylated-Tubulin (Ac-TUB), acetylated H3 (Ac-H3), and HSP70 in LNCaP (A,B) and PC-3 (C,D) cells treated for 24 h at GI50 concentration. […]
Cell treatment. […] Protein quantitation was performed with Pierce Detergent Compatible Bradford Assay (#23246, Thermo Fisher Scientific, MA, USA), and equivalent amounts of cellular extracts were resolved by SDS-PAGE, transferred to PVDF or Nitrocellulose membrane with Trans-Blot Turbo Transfer System (Bio-Rad, Hercules, CA, USA), and immunoblotted with the following primary antibodies, diluted 1:1000 in 1× TBS with 1 mg/mL BSA: Anti-Histone H3 (#PA5-16183, Invitrogen, Thermo Fisher Scientific, MA, USA), Anti-acetylated histone H3 (#sc-518011, Santa Cruz Biotechnology, Inc., Dallas, TX, USA), Anti-Tubulin (#E-AB-20073, Elabscience, Houston, TX, USA), Anti-acetylated α-tubulin (#sc-23950, Santa Cruz), and Anti-HSP70 (#4872S, Cell Signaling Technology, Inc., Danvers, MA, USA). […]

In series [2] the test system is acetylated H3 (Ac-H3) in LNCaP cells. Nature of the series: Western blot of acetylated histone H3 in LNCaP cells. The note with it: 24 h at GI50 concentration. Here is the method: as §1
(§2) Figure 2 Western blot analysis and relative quantification of the expression levels of acetylated-Tubulin (Ac-TUB), acetylated H3 (Ac-H3), and HSP70 in LNCaP (A,B) and PC-3 (C,D) cells treated for 24 h at GI50 concentration. Tubastatin-A was used as HDAC6-specific positive control, Geldanamycin (GELDA) as HSP90-specific positive control, and SAHA as pan-HDAC inhibitor. […]

Series [3] has as its system acetylated H3 (Ac-H3) in PC-3 cells. Nature of the series: Western blot of acetylated histone H3 in PC-3 cells. The note with it: 24 h at GI50 concentration. Here is the method:
as §1, §2

As for `CC(C)[C@H](C(=O)NCc1ccc(C(=O)NO)cc1)N1Cc2ccccc2C1=O` [Compound 11], the “α-Tubulin acetylation, fold induction versus DMSO control” value in series [1] is reported as 5.5 fold.
For `O=C(c1cc(OCc2ccccc2)ccc1O)N1CCC(c2noc(C(F)(F)F)n2)CC1` [Compound 8], the “induction of H3 acetylation” value in series [2] and in series [3] was “no remarkable induction of H3 acetylation” each time. For the same molecule, in series [1], the “α-Tubulin acetylation, fold induction versus DMSO control” value amounted to 7.3 fold.
As to `O=C(Nc1ncccc1O)c1ccc(-c2noc(C(F)(F)F)n2)cc1` [Compound 18], in series [1], the “α-Tubulin acetylation, fold induction versus DMSO control” value is 4.9 fold.
